Results: article PMC3261798, “Design, Synthesis, and Biological Evaluation of PKD Inhibitors” (Pharmaceutics, 2011)
Counter-ions that a name gives are not always drawn.

How the values were obtained:
[1] = molecular target: T1, PKD1 (Homo sapiens, UniProt Q15139); assay: In vitro radiometric PKD kinase activity assay; assay type: biochemical; design: purchased Biomol International; settings: for IC50: read-out: IC50 Radiometric PKD1; for inhibitory activity against PKD (in words): preliminary biological data for kmg-NB5-13 and kmg-NB5-15
T1 sequence (Q15139 1-912): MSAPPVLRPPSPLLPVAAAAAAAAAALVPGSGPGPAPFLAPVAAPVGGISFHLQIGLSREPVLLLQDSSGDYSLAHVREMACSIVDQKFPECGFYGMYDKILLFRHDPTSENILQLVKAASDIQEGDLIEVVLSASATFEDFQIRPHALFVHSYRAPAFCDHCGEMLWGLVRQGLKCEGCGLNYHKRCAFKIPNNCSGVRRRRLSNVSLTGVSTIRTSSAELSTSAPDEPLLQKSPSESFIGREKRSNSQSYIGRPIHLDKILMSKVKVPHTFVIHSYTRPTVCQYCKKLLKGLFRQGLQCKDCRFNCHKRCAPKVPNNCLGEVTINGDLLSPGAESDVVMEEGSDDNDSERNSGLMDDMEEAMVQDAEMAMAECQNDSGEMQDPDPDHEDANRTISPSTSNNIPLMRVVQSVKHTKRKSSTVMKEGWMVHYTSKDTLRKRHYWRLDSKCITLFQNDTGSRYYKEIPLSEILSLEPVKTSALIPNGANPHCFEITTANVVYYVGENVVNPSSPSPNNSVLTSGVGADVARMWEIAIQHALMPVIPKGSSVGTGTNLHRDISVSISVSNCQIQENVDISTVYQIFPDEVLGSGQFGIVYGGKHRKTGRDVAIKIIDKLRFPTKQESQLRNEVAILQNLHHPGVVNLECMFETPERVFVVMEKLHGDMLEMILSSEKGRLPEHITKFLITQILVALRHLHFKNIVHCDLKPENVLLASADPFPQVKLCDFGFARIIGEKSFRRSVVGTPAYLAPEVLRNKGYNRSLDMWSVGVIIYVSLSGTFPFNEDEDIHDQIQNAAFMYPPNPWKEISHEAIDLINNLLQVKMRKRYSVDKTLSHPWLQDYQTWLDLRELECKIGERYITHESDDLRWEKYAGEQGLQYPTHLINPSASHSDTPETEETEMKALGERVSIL
Protocol: In vitro radiometric PKD kinase assays were conducted as previously described. Briefly, 50 ng recombinant human PKD1 (Biomol International, Plymouth Meeting, PA, USA) was incubated at 30 °C for 10 min with a reaction mixture containing 2.5 μg syntide-2 (Sigma), 70 μM ATP, and 1 μCi γ-^32 P-ATP (PerkinElmer, Boston, MA, USA) in kinase buffer (50 mM Tris-HCl pH 7.5, […], and 10 mM […]). 25 μL of the reaction mixture was then spotted on Whatman P81 filter paper (Whatman Inc., Clifton, NJ, USA), and filter papers were washed three times with 0.5% phosphoric acid, dried, then counted using a Beckman LS6500 multi-purpose scintillation counter.

[2] = molecular target: T1, PKD1; assay: IMAP-based PKD Fluorescence Polarization (FP) assay, automated HTS format; assay type: biochemical; settings: mean ± SEM, n = number of independent experiments
Protocol: An automated, HTS formatted IMAP-based PKD Fluorescence Polarization (FP) assay was used to assess the specificity of the PKD analogs as previously described. […] Kinase reactions were incubated for 90 min at room temperature and stopped by the addition of IMAP binding reagent. Assay plates were then incubated for 2 h and IMAP-based FP data were captured on a Molecular Devices Spectra-Max M5 (Sunnyvale, CA, USA).

[3] = mean ± SEM, n = number of independent experiments

SMILES | melting point | IC50 IMAP-FP PKD1 [2] | further results
O=C1NCCSc2c1sc1cnc(O)nc21 (as salt: hydrochloride) [kmg-NB4-69A, 2-Hydroxy-7H,8H,9H-1,4-thiazepino[7′,6′-5,4]thiopheno[3,2-d]pyrimidin-6-one] | 335.9 °C (dec.) | – | –
COc1ccc2oc3c(c2c1)CCCNC3=O [kb-NB77-56, 7-Methoxy-2,3,4,5-tetrahydro-[1]benzoxolo[2,3-c]azepin-1-one] | 261 to 263 °C | – | IC50 [1, 3]: 2.39 µM; IC50 [2]: 2.4 ± 0.14 µM
CC(C)(C)[Si](C)(C)Oc1ccc2oc3c(c2c1)CCCNC3=O [kb-NB77-77, 7-(tert-Butyldimethylsilyloxy)-2,3,4,5-tetrahydro-[1]benzoxolo[2,3-c]azepin-1-one] | 209 to 212 °C | not inhibitory | –
CC(C)(C)[Si](C)(C)Oc1ccc2oc(=O)c3c(c2c1)CCCN3 [kb-NB77-78, 9-(tert-Butyldimethylsilyloxy)-1,2,3,4-tetrahydrochromeno[3,4-b]pyridin-5-one] | 117 to 119 °C | not inhibitory | –
C=CCOc1ccc2oc(=O)c3c(c2c1)CCCN3 [kb-NB77-83, 9-Allyloxy-1,2,3,4-tetrahydrochromeno[3,4-b]pyridin-5-one] | 90 to 91 °C | not inhibitory | –
O=C(OCc1ccccc1)N1CCCc2c1c(=O)oc1ccc(O)cc21 [kb-NB77-91, Benzyl 9-hydroxy-5-oxo-1,2,3,4-tetrahydrochromeno[3,4-b]pyridine-4-carboxylate] | 235 to 237 °C | not inhibitory | –
COc1ccc2oc3c(c2c1)CCCN(C)C3=O [kb-NB96-04, 7-Methoxy-2-methyl-2,3,4,5-tetrahydro-[1]benzoxolo[2,3-c]azepin-1-one] | 150 to 151 °C | – | IC50 [2]: > 100 µM
CC=Cc1c(O)ccc2oc3c(c12)CCCNC3=O [kb-NB96-30, 6-[(E)-2-(Prop-1-enyl) ]-7-hydroxy-2,3,4,5-tetrahydro-[1]benzoxolo[2,3-c]azepin-1-one] | > 300 °C | – | –
O=C1NCCCc2c1oc1cc(Cl)c(O)c(Cl)c21 [kb-NB96-43, 6,8-Dichloro-7-hydroxy-2,3,4,5-tetrahydro-[1]benzoxolo[2,3-c]azepin-1-one] | 298 to 301 °C | not inhibitory | –
O=c1oc2ccc(O)c(Cl)c2c2c1NCCC2 [kb-NB96-47-1, 10-Chloro-9-hydroxy-1,2,3,4-tetrahydrochromeno[3,4-b]pyridin-5-one] | 211 to 213 °C | not inhibitory | –
O=C1NCCCc2c1oc1cc(Cl)c(O)cc21 [kb-NB96-47-5, 8-Chloro-7-hydroxy-2,3,4,5-tetrahydro-[1]benzoxolo[2,3-c]azepin-1-one] | 327 to 332 °C | – | –
C=CCOc1ccc2oc3c(c2c1Cl)CCCNC3=O [kb-NB96-50, 7-Allyloxy-6-chloro-2,3,4,5-tetrahydro-[1]benzoxolo[2,3-c]azepin-1-one] | 192 to 194 °C | not inhibitory | –
COc1ccc2oc3c(c2c1)CCNC3=O [kb-NB123-32, 6-Methoxy-3,4-dihydrobenzoxolo[2,3-c]pyridin-1(2H)-one] | 237 to 241 °C | – | IC50 [2]: > 100 µM
CC(=O)Oc1ccc2oc3c(c2c1)CCCNC3=O [kb-NB123-36, 7-Acetoxy-2,3,4,5-tetrahydro-[1]benzoxolo[2,3-c]azepin-1-one] | 196 to 197 °C | – | IC50 [2]: 84.9 ± 3.21 µM
COc1ccc2oc3c(c2c1)CCN(C)C3=O [kb-NB123-37, 6-Methoxy-2-methyl-3,4-dihydrobenzoxolo[2,3-c]pyridin-1(2H)-one] | 168 to 172 °C | not inhibitory | –
CC(=O)Oc1ccc2oc3c(c2c1)CCCN(C(C)=O)C3=O [kb-NB123-45-1, 2-Acetyl-1-oxo-2,3,4,5-tetrahydro-[1]benzoxolo[2,3-c]azepin-7-yl acetate] | 155 to 157 °C | not inhibitory | –

SMILES | melting point | IC50 IMAP-FP PKD1 [2] | further results
O=C1NCCc2c1[nH]c1ccc(OCc3ccccc3)cc21 [kb-NB123-52, 2,3,4,9-Tetrahydro-6-benzyloxy-1H-pyrido[3,4-b]indol-1-one] | 208 to 210 °C | not inhibitory | –
O=C1NCCCc2c1[nH]c1ccc(OCc3ccccc3)cc21 [kb-NB123-53, 3,4,5,10-Tetrahydro-7-benzyloxy-azepino[3,4-b]indol-1(2H)-one] | – | not inhibitory | –
O=C1NCCSc2c1sc1ccc(OCc3ccccc3)cc21 [kb-NB123-66, 3,4-Dihydro-9-benzyloxy-[1]benzothieno[2,3-f]-1,4-thiazepin-5(2H)-one] | 247 to 249 °C | not inhibitory | –
CC(=O)Nc1ccc2[nH]c3c(c2c1)CCNC3=O [kb-NB123-93, N-(2,3,4,9-Tetrahydro-1-oxo-1H-pyrido[3,4-b]indol-6-yl)-acetamide] | > 300 °C | not inhibitory | –
CC(=O)Nc1ccc2[nH]c3c(c2c1)CCCNC3=O [kb-NB123-94] | > 300 °C | not inhibitory | –
O=C1NCCC(=NOCc2ccccc2)c2c1oc1ccc(O)cc21 [kb-NB142-10, 5-(Benzyloxyimino)-7-hydroxy-2,3,4,5-tetrahydro-[1]benzoxolo[2,3-c]azepin-1-one] | 103 to 110 °C | not inhibitory | –
Cc1ccc(S(=O)(=O)NN=C2CCNC(=O)c3oc4ccc(O)cc4c32)cc1 [kb-NB142-11, 7-Hydroxy-5-[2-{(4-methylphenyl)sulfony}hydrazono]-2,3,4,5-tetrahydro-[1]benzoxolo[2,3-c]azepin-1-one] | 220 to 224 °C | – | IC50 [2]: 38.2 ± 1.17 µM
CN1CCCc2c(oc3ccc(O)cc23)C1=O [kb-NB142-25, 7-Hydroxy-2-methyl-2,3,4,5-tetrahydro-[1]benzoxolo[2,3-c]azepin-1-one] | 282 to 284 °C | – | IC50 [1, 3]: 4 ± 1.1 µM
Oc1ccc2oc3c(c2c1)CCCN1CCN=C31 [kb-NB165-15, 9-Hydroxy-3,5,6,7-tetrahydro-2H-benzoxolo[2,3-c]imidazo[1,2-a]azepine] | 230 to 232 °C (dec.) | – | IC50 Radiometric PKD1 [1, 3]: not inhibitory
COc1ccc2sc3c(c2c1)SCCN(C)C3=O [kb-NB165-16, 2,3-Dihydro-4-methyl-9-methoxy-[1]benzothieno[2,3-f]-1,4-thiazepin-5(2H)-one] | 160 to 161 °C | – | IC50 [1, 3]: 4.57 ± 0.78 µM
CN1CCSc2c(sc3ccc(O)cc23)C1=O [kb-NB165-17, 2,3-Dihydro-4-methyl-9-hydroxy-[1]benzothieno[2,3-f]-1,4-thiazepin-5(2H)-one] | 265 to 268 °C | – | IC50 [1, 3]: 0.45 ± 0.05 µM
COc1nc(OC)c2sc3c(c2n1)SCCNC3=O [kmg-NB5-13C, 2,4-Dimethoxy-7H,8H,9H-1,4-thiazepino[7′,6′-5,4]thiopheno[3,2-d]pyrimidin-6-one] | 288 °C (dec.) | – | IC50 [1, 3]: > 30 µM; inhibitory activity against PKD (in words) [1]: absence of inhibitory activity
COc1nc(O)c2sc3c(c2n1)SCCNC3=O [kmg-NB5-15A, 4-Hydroxy-2-methoxy-7H,8H,9H-1,4-thiazepino[7′,6′-5,4]thiopheno[3,2-d]pyrimidin-6-one] | 295 °C (dec.) | – | inhibitory activity against PKD (in words) [1]: absence of inhibitory activity
O=C1NCCSc2c1sc1ccc(N=C=S)cc21 [mcf292-05, 3,4-Dihydro-9-isothiocyanato-[1]benzothieno[2,3-f]-1,4-thiazepin-5(2H)-one] | 253 to 253.3 °C | – | IC50 [1, 3]: 2.77 µM
O=C(CCl)Nc1ccc2sc3c(c2c1)SCCNC3=O [mcf292-09, 3,4-Dihydro-9-(2-chloroacetamido)-[1]benzothieno[2,3-f]-1,4-thiazepin-5(2H)-one] | 229 to 230 °C (dec.) | – | IC50 [1, 3]: 1.5 µM
